Measurements as given in patent EP1235833B1 (GLAXO GROUP LIMITED, priority 1999, dated 2001).

Test: Acid stability: acid-mediated hydrolytic decomposition, simulated stomach conditions, HPLC
Format: physicochemical
Conditions: for Compound left (%): 0.3 mg/mL in dilute hydrochloric acid at pH 1, 25°C
Experimental: Compounds were tested for their stability towards acid-mediated hydrolytic decomposition employing a test designed to simulate stomach conditions. Each compound was incubated at an initial concentration of 0.3 mg/mL in dilute hydrochloric acid at pH 1 for 24 hours at 25°C. HPLC was run immediately for t=0 and at intervals up to approximately 24 hours. The results for compounds of Example 2, part b, Example 9, and for comparative phosphoramidates of 2',3'-dideoxy-adenosine (Compound 1093) and 2',3'-didehydro-2',3'-dideoxy-adenosine (Compound 1001), described in W096/29336A, are given in the table below.

Structure (SMILES): COC(=O)C(C)(C)NP(=O)(OC[C@@H]1C=C[C@H](n2cnc3c(NCC4CC4)nc(N)nc32)C1)Oc1ccccc1 (relative stereo) [Example 9]
- Compound left (%) (Time 0 hr): 100%
- Compound left (%) (Time 13 hr): 96%
- Compound left (%) (Time 24 hr): 94%
- Acid stability in words (after 24 hours, dilute hydrochloric acid at pH 1, 25°C): remained intact
